Experiment: recombinant UMI read abundance after kanamycin selection (control-corrected) (log10(CPM+1)); higher = more efficient recombination; extreme values may be limits of the assay; sequences stand for … in AGTGCAGAGAAAATCGGCCAGTTTTCTCTGCCTGCAGTCCGCATGCCGTGGGACCCCTTGGGTTCTAACCTGTTGCCTAGATTTATGCAGCGGACTGCCTTTCTCCCAAAGTGATAAACCGG…AGGTTGGTTTCACT; site = the 11-nt donor
Outline: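 Sequencing read counts were converted to CPM, averaged over two replicates and scaled by control-derived factors. Results are given as log10(CPM+1). The reads covered the donor–target junction of recombinant UMIs from a pooled Escherichia coli screen of donor and donor-binding-loop pairs for the IS621 bridge recombinase.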
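Further: IS621 bridge recombinase in Escherichia coli cells against a fixed T5 target plasmid.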

Sequence | recombinant UMI read abundance (log10)
TGCTGAGCATGGACCGGTTTTCCCGGTAATCCGTATTTGAT (site TGCTGAGCTAT) | 1.36
TGCTTCGCATGGACCGGTTTTCCCGGTAATCCGTATTTGTC (site TGCTTCGCTGA) | 0.542
TGGAATACATGGACCGGTTTTCCCGGTAATCCGTATTTGCA (site TAGAATACTTG) | 0.91
TGGAATACATGGACCGGTTTTCCCGGTAATCCGTATTTGCA (site TCGAATACTTG) | 0.55
TGGAATACATGGACCGGTTTTCCCGGTAATCCGTATTTGCA (site TGGAATACTTG) | 1.86
TGGAATACATGGACCGGTTTTCCCGGTAATCCGTATTTGCA (site TTGAATACTTG) | 0.00597
TGGAATCCATGGACCGGTTTTCCCGGTAATCCGTATTTGTG (site CGGAATCCTAA) | 0.00353
TGGAATCCATGGACCGGTTTTCCCGGTAATCCGTATTTGTG (site TGGAATCCTCA) | 0.604
TGGAATGCATGGACCGGTTTTCCCGGTAATCCGTATTTGTT (site CGGAATCCTAA) | 0.00325
TGGAATGCATGGACCGGTTTTCCCGGTAATCCGTATTTGTT (site TGGAATGCTAA) | 1.71
TGGACACCATGGACCGGTTTTCCCGGTAATCCGTATTTGAC (site TGAACACCTGT) | 0
TGGACACCATGGACCGGTTTTCCCGGTAATCCGTATTTGAC (site TGCACACCTGT) | 0
TGGACACCATGGACCGGTTTTCCCGGTAATCCGTATTTGAC (site TGGACACCTGT) | 0
TGGACACCATGGACCGGTTTTCCCGGTAATCCGTATTTGAC (site TGTACACCTGT) | 0
TGGAGTGCATGGACCGGTTTTCCCGGTAATCCGTATTTGAC (site TGGAGTGCTGT) | 2.21
TGGATACCATGGACCGGTTTTCCCGGTAATCCGTATTTGTT (site TGGATACCTAA) | 0
TGGATGACATGGACCGGTTTTCCCGGTAATCCGTATTTGCA (site AGGAAGACTTG) | 0.54
TGGATGACATGGACCGGTTTTCCCGGTAATCCGTATTTGCA (site TGGATGACTTG) | 2.44
TGGATGTCATGGACCGGTTTTCCCGGTAATCCGTATTTGAA (site TGGATGTCTTT) | 2.11
TGGCAAGCATGGACCGGTTTTCCCGGTAATCCGTATTTGTC (site TGGCAAGCTGA) | 0
TGGCCCGCATGGACCGGTTTTCCCGGTAATCCGTATTTGGC (site TGGCCAGCTGC) | 0
TGGCCCGCATGGACCGGTTTTCCCGGTAATCCGTATTTGGC (site TGGCCCGCTGC) | 0.649
TGGCCCGCATGGACCGGTTTTCCCGGTAATCCGTATTTGGC (site TGGCCGGCTGC) | 0
TGGCCCGCATGGACCGGTTTTCCCGGTAATCCGTATTTGGC (site TGGCCTGCTGC) | 0
TGGCCGACATGGACCGGTTTTCCCGGTAATCCGTATTTGGG (site TGGCCGACTCC) | 0

Sequence | recombinant UMI read abundance (log10)
TGGCCGCCATGGACCGGTTTTCCCGGTAATCCGTATTTGGC (site TGGCCGACTGC) | 0.0204
TGGCCGCCATGGACCGGTTTTCCCGGTAATCCGTATTTGGC (site TGGCCGCCTGC) | 0
TGGCCGCCATGGACCGGTTTTCCCGGTAATCCGTATTTGGC (site TGGCCGGCTGC) | 0
TGGCCGCCATGGACCGGTTTTCCCGGTAATCCGTATTTGGC (site TGGCCGTCTGC) | 0
TGGCCGGCATGGACCGGTTTTCCCGGTAATCCGTATTTGGC (site AGGCCGGCTGC) | 0
TGGCCGGCATGGACCGGTTTTCCCGGTAATCCGTATTTGGC (site CGGCCGGCTGC) | 0
TGGCCGGCATGGACCGGTTTTCCCGGTAATCCGTATTTGGC (site GGGCCGGCTGC) | 0
TGGCCGGCATGGACCGGTTTTCCCGGTAATCCGTATTTGGC (site TAGCCGGCTGC) | 0
TGGCCGGCATGGACCGGTTTTCCCGGTAATCCGTATTTGGC (site TCGCCGGCTGC) | 0
TGGCCGGCATGGACCGGTTTTCCCGGTAATCCGTATTTGGC (site TGACCGGCTGC) | 0
TGGCCGGCATGGACCGGTTTTCCCGGTAATCCGTATTTGGC (site TGCCCGGCTGC) | 0
TGGCCGGCATGGACCGGTTTTCCCGGTAATCCGTATTTGGC (site TGGACGGCTGC) | 0
TGGCCGGCATGGACCGGTTTTCCCGGTAATCCGTATTTGGC (site TGGCAGGCTGC) | 0
TGGCCGGCATGGACCGGTTTTCCCGGTAATCCGTATTTGGC (site TGGCCAGCTGC) | 0
TGGCCGGCATGGACCGGTTTTCCCGGTAATCCGTATTTGGC (site TGGCCCGCTGC) | 0
TGGCCGGCATGGACCGGTTTTCCCGGTAATCCGTATTTGGC (site TGGCCGACTGC) | 0
TGGCCGGCATGGACCGGTTTTCCCGGTAATCCGTATTTGGC (site TGGCCGCCTGC) | 0
TGGCCGGCATGGACCGGTTTTCCCGGTAATCCGTATTTGGC (site TGGCCGGCTAC) | 0.0414
TGGCCGGCATGGACCGGTTTTCCCGGTAATCCGTATTTGGC (site TGGCCGGCTCC) | 0.0175
TGGCCGGCATGGACCGGTTTTCCCGGTAATCCGTATTTGGC (site TGGCCGGCTGA) | 0
TGGCCGGCATGGACCGGTTTTCCCGGTAATCCGTATTTGGC (site TGGCCGGCTGC) | 0.862
TGGCCGGCATGGACCGGTTTTCCCGGTAATCCGTATTTGGC (site TGGCCGGCTGG) | 0
TGGCCGGCATGGACCGGTTTTCCCGGTAATCCGTATTTGGC (site TGGCCGGCTGT) | 0
TGGCCGGCATGGACCGGTTTTCCCGGTAATCCGTATTTGGC (site TGGCCGGCTTC) | 0.00718
TGGCCGGCATGGACCGGTTTTCCCGGTAATCCGTATTTGGC (site TGGCCGTCTGC) | 0

Sequence | recombinant UMI read abundance (log10)
TGGCCGGCATGGACCGGTTTTCCCGGTAATCCGTATTTGGC (site TGGCCTGCTGC) | 0
TGGCCGGCATGGACCGGTTTTCCCGGTAATCCGTATTTGGC (site TGGCGGGCTGC) | 0
TGGCCGGCATGGACCGGTTTTCCCGGTAATCCGTATTTGGC (site TGGCTGGCTGC) | 0
TGGCCGGCATGGACCGGTTTTCCCGGTAATCCGTATTTGGC (site TGGGCGGCTGC) | 0
TGGCCGGCATGGACCGGTTTTCCCGGTAATCCGTATTTGGC (site TGGTCGGCTGC) | 0.00844
TGGCCGGCATGGACCGGTTTTCCCGGTAATCCGTATTTGGC (site TGTCCGGCTGC) | 0
TGGCCGGCATGGACCGGTTTTCCCGGTAATCCGTATTTGGC (site TTGCCGGCTGC) | 0.00854
TGGCCGTCATGGACCGGTTTTCCCGGTAATCCGTATTTGAG (site TGGCCGTCTCT) | 0.297
TGGCCTGCATGGACCGGTTTTCCCGGTAATCCGTATTTGGC (site TGGCCAGCTGC) | 0
TGGCCTGCATGGACCGGTTTTCCCGGTAATCCGTATTTGGC (site TGGCCCGCTGC) | 0
TGGCCTGCATGGACCGGTTTTCCCGGTAATCCGTATTTGGC (site TGGCCGGCTGC) | 0
TGGCCTGCATGGACCGGTTTTCCCGGTAATCCGTATTTGGC (site TGGCCTGCTGC) | 0
TGGCTAGCATGGACCGGTTTTCCCGGTAATCCGTATTTGAA (site TAGCTAGCTTT) | 0.00919
TGGCTAGCATGGACCGGTTTTCCCGGTAATCCGTATTTGAA (site TCGCTAGCTTT) | 0.0168
TGGCTAGCATGGACCGGTTTTCCCGGTAATCCGTATTTGAA (site TGGCTAGCTTT) | 1.06
TGGCTAGCATGGACCGGTTTTCCCGGTAATCCGTATTTGAA (site TTGCTAGCTTT) | 0.00374
TGGCTCTCATGGACCGGTTTTCCCGGTAATCCGTATTTGCA (site TGGCTCTCTTG) | 1.86
TGGGAACCATGGACCGGTTTTCCCGGTAATCCGTATTTGAT (site AGGGAACCTAT) | 0
TGGGAACCATGGACCGGTTTTCCCGGTAATCCGTATTTGAT (site CGGGAACCTAT) | 0.00502
TGGGAACCATGGACCGGTTTTCCCGGTAATCCGTATTTGAT (site GGGGAACCTAT) | 0
TGGGAACCATGGACCGGTTTTCCCGGTAATCCGTATTTGAT (site TGGGAACCTAT) | 0.00982
TGGTCCACATGGACCGGTTTTCCCGGTAATCCGTATTTGTC (site TGGTCCACTGA) | 0.323
TGGTCCCCATGGACCGGTTTTCCCGGTAATCCGTATTTGTA (site TGATCCCCTTA) | 0
TGGTCCCCATGGACCGGTTTTCCCGGTAATCCGTATTTGTA (site TGCTCCCCTTA) | 0.176
TGGTCCCCATGGACCGGTTTTCCCGGTAATCCGTATTTGTA (site TGGTCCCCTTA) | 0.0183

Reference: the supplement of paper PMC11208160
